Results as given in patent US12540128B2, “Substituted pyridazinones as herbicides” (SYNGENTA CROP PROTECTION AG, priority 2019, dated 2026).

Columns and labels:
Type in all cases: in vivo
Conditions in all cases: 250 g/ha, after 13 days
[1] = tested on: Abutilon theophrasti (ABUTH); experiment: B4 Pre-Emergence Efficacy Test 2
Description: (§1) Seeds of a variety of test species were sown in standard soil in pots: Amaranthus retoflexus (AMARE), Setaria faberi (SETFA), Echinochloa crus-galli (ECHCG), Ipomoea hederacea (IPOHE), Zea Mays (ZEAMX), Abutilon theophrasti (ABUTH). After cultivation for one day (pre-emergence) under controlled conditions in a glasshouse (at 24/16° C., day/night; 14 hours light; 65% humidity), the plants were sprayed with an aqueous spray solution derived from the formulation of the technical active ingredient in acetone/water (50:50) solution containing 0.5% Tween 20 (polyoxyethelyene sorbitan monolaurate, CAS RN 9005-64-5). Compounds are applied at 250 g/ha. The test plants were then grown in a glasshouse under controlled conditions (at 24/16° C., day/night; 14 hours light; 65% humidity) and watered twice daily. After 13 days, the test is evaluated for the percentage damage caused to the plant. The biological activities are assessed on a five point scale (5=80-100%; 4=60-79%; 3=40-59%; 2=20-39%; 1=0-19%). A blank value in the table is indicative that the compound was not tested on that species.

[2] = tested on: Echinochloa crus-galli (ECHCG); experiment: B4 Pre-Emergence Efficacy Test 2
Description: as §1

Setaria faberi (SETFA) [3] = experiment: B4 Pre-Emergence Efficacy Test 2
Description: as §1

Zea Mays (ZEAMX) [4] = experiment: B4 Pre-Emergence Efficacy Test 2
Description: as §1

[5] = tested on: Amaranthus retoflexus (AMARE); experiment: B4 Pre-Emergence Efficacy Test 2
Description: as §1

[6] = tested on: Ipomoea hederacea (IPOHE); experiment: B4 Pre-Emergence Efficacy Test 2
Description: as §1

[7] = tested on: Abutilon theophrasti (ABUTH); experiment: B2 Post-Emergence Efficacy Test 2
Description: (§2) Seeds of a variety of test species are sown in standard soil in pots:— Amaranthus retoflexus (AMARE), Setaria faberi (SETFA), Echinochloa crus-galli (ECHCG), Ipomoea hederacea (IPOHE), Zea Mays (ZEAMX), Abutilon theophrasti (ABUTH). After 8 days cultivation (post-emergence) under controlled conditions in a glasshouse (at 24/16° C., day/night; 14 hours light; 65% humidity), the plants are sprayed with an aqueous spray solution derived from the formulation of the technical active ingredient in acetone/water (50:50) solution containing 0.5% Tween 20 (polyoxyethylene sorbitan monolaurate, CAS RN 9005-64-5). Compounds are applied at 250 g/ha. The test plants are then grown in a glasshouse under controlled conditions in a glasshouse (at 24/16° C., day/night; 14 hours light; 65% humidity) and watered twice daily. After 13 days, the test is evaluated for the percentage damage caused to the plant. The biological activities are assessed on a five point scale (5=80-100%; 4=60-79%; 3=40-59%; 2=20-39%; 1=0-19%). A blank value in the table is indicative that the compound was not tested on that species.

[8] = tested on: Echinochloa crus-galli (ECHCG); experiment: B2 Post-Emergence Efficacy Test 2
Description: as §2

Setaria faberi (SETFA) [9] = experiment: B2 Post-Emergence Efficacy Test 2
Description: as §2

Zea Mays (ZEAMX) [10] = experiment: B2 Post-Emergence Efficacy Test 2
Description: as §2

[11] = tested on: Amaranthus retoflexus (AMARE); experiment: B2 Post-Emergence Efficacy Test 2
Description: as §2

[12] = tested on: Ipomoea hederacea (IPOHE); experiment: B2 Post-Emergence Efficacy Test 2
Description: as §2

SMILES | percentage damage caused to the plant, five point scale, ABUTH [1] | percentage damage caused to the plant, five point scale, ECHCG [2] | percentage damage caused to the plant, five point scale, SETFA (Setaria faberi (SETFA) [3]) | percentage damage caused to the plant, five point scale, ZEAMX (Zea Mays (ZEAMX) [4]) | percentage damage caused to the plant, five point scale, AMARE [5] | percentage damage caused to the plant, five point scale, IPOHE [6] | percentage damage caused to the plant, five point scale, ABUTH [7] | percentage damage caused to the plant, five point scale, ECHCG [8] | percentage damage caused to the plant, five point scale, SETFA (Setaria faberi (SETFA) [9]) | percentage damage caused to the plant, five point scale, ZEAMX (Zea Mays (ZEAMX) [10]) | percentage damage caused to the plant, five point scale, AMARE [11] | percentage damage caused to the plant, five point scale, IPOHE [12]
Cc1nn(C)c(=O)c(-c2c(F)ccc(Cl)c2CCc2cccc3ccccc23)c1O [Compound 1.044] | 3 (3=40-59%) | 0 | 0 | 1 (1=0-19%) | 2 (2=20-39%) | 3 (3=40-59%) | 3 (3=40-59%) | 0 | 0 | 1 (1=0-19%) | 3 (3=40-59%) | 4 (4=60-79%)
Cc1nn(C)c(=O)c(-c2c(F)ccc(Cl)c2CCc2ccc3ccccc3c2)c1O [Compound 1.053] | 2 (2=20-39%) | 2 (2=20-39%) | 2 (2=20-39%) | 1 (1=0-19%) | 4 (4=60-79%) | 1 (1=0-19%) | 3 (3=40-59%) | 3 (3=40-59%) | 4 (4=60-79%) | 4 (4=60-79%) | 4 (4=60-79%) | 4 (4=60-79%)
Cc1nn(C)c(=O)c(-c2c(F)ccc(Cl)c2CCc2ccc3c(c2)OC(C)(C)C3)c1O [Compound 1.340] | 5 (5=80-100%) | 5 (5=80-100%) | 5 (5=80-100%) | 3 (3=40-59%) | 5 (5=80-100%) | 5 (5=80-100%) | 5 (5=80-100%) | 5 (5=80-100%) | 5 (5=80-100%) | 5 (5=80-100%) | 5 (5=80-100%) | 4 (4=60-79%)
Cc1nc2ccc(CCc3c(Cl)ccc(F)c3-c3c(O)c(C)nn(C)c3=O)cc2o1 [Compound 1.341] | 5 (5=80-100%) | 5 (5=80-100%) | 5 (5=80-100%) | 4 (4=60-79%) | 5 (5=80-100%) | 5 (5=80-100%) | 5 (5=80-100%) | 5 (5=80-100%) | 4 (4=60-79%) | 4 (4=60-79%) | 5 (5=80-100%) | 5 (5=80-100%)
Cc1nn(C)c(=O)c(-c2c(F)ccc(Cl)c2CCc2ccc3c(c2)OC(F)(F)O3)c1O [Compound 1.342] | 4 (4=60-79%) | 5 (5=80-100%) | 5 (5=80-100%) | 1 (1=0-19%) | 5 (5=80-100%) | – | 5 (5=80-100%) | 5 (5=80-100%) | 4 (4=60-79%) | 4 (4=60-79%) | 5 (5=80-100%) | 5 (5=80-100%)
Cc1nn(C)c(=O)c(-c2c(F)ccc(Cl)c2CCc2nn(C)c3ccccc23)c1O [Compound 1.344] | 4 (4=60-79%) | 2 (2=20-39%) | 2 (2=20-39%) | 0 | 3 (3=40-59%) | 3 (3=40-59%) | 4 (4=60-79%) | 2 (2=20-39%) | – | 1 (1=0-19%) | 3 (3=40-59%) | 3 (3=40-59%)
Cc1nn(C)c(=O)c(-c2c(F)ccc(Cl)c2CCc2cnc3c(ccn3C)c2)c1O [Compound 1.345] | 4 (4=60-79%) | 2 (2=20-39%) | 5 (5=80-100%) | 1 (1=0-19%) | 5 (5=80-100%) | 5 (5=80-100%) | 4 (4=60-79%) | 3 (3=40-59%) | 4 (4=60-79%) | 2 (2=20-39%) | 4 (4=60-79%) | 4 (4=60-79%)
Cc1nn(C)c(=O)c(-c2c(F)ccc(Cl)c2CCc2ccc3occc3c2)c1O [Compound 1.346] | 4 (4=60-79%) | 0 | 0 | 1 (1=0-19%) | 3 (3=40-59%) | 3 (3=40-59%) | 4 (4=60-79%) | 4 (4=60-79%) | 0 | 2 (2=20-39%) | 2 (2=20-39%) | 3 (3=40-59%)
